Laboratory results reported in PMC7589190, “Targeted Amino Acid Substitutions in a Trichoderma Peptaibol Confer Activity against Fungal Plant Pathogens and Protect Host Tissues from Botrytis cinerea Infection” (International Journal of Molecular Sciences, 2020).
“Also recorded” adds a separate entry of the source. Marks after values point to notes of the source that are not given here. Square brackets hold non-standard residues; d marks the D form. Peptide text beside a SMILES is read from it. * marks the point of attachment. Leu(ol) = CC(C)C[C@H](N)CO; Octanoyl = CCCCCCCC(=O)*; Api = NC1(C(=O)O)CCNCC1; Aib = CC(C)(N)C(=O)O

Legend:
B. cinerea [1] = assay: Resazurin vital dye growth assay in microtiter wells; assay type: cell-based, Botrytis cinerea; design: key to Antifungal Activity: –, no activity; settings: for Growth Delay / fungal growth / activity against B. cinerea (in words): peptide 15 µM; for Growth Delay: PDB pH 6.9, 5 × 10^5 spores mL^−1, resazurin, 25 °C dark, vs untreated control, repeated three times; for fungal growth / activity against B. cinerea (in words): resazurin dye; for Antifungal Activity: summary of performance of Lys-containing analogs against B. cinerea
B. cinerea [2] = assay: Protection of common bean leaves from B. cinerea infection; settings: for reduction of infected (symptomatic) leaf area: common bean leaves (Phaseolus vulgaris, Borlotto var. Teggia), peptide sprayed at 50 µM
Protocol: Leaves of common bean (Phaseolus vulgaris, Borlotto var. Teggia) were detached from 12 days-old plants grown in organic soil into a climatic chamber with a 14 h photoperiod and 22/20 °C day/night temperature.
Treatments were performed by spraying the peptides at different concentrations on leaves and berries. Water spraying was performed as a negative control.
Leaves were arranged on moist towels in plastic trays and inoculated with a suspension of 2.5 × 10^6 mL^−1 conidia of B. cinerea in potato dextrose broth (PDB). Ten microliters of the conidia suspension were dropped on two or three points apart on the leaf surface of common bean and grapevine leaves, respectively.
Inoculated leaves and berries were incubated in the dark at 25 °C in plastic bags to maintain humidity.
Seven days post-inoculation (dpi), the size of the symptomatic leaf area was measured from pictures taken with a Panasonic Lumix DMC-FZ2000 by using the graphic software “Fiji ImageJ” (GNU General Public License).
The experiment was repeated three times with leaves and four times with berries. Each treatment was performed with seven leaves of common bean and three leaves of the grapevine.
Data obtained in the infection experiments performed on common bean leaves were statistically analyzed by applying the one-way Anova Bonferroni–Holm test. The statistical analysis was performed within the groups of peptides tested at the same time compared to their respective control.

[3] = Water solubility of the peptides; assay type: physicochemical; settings: native peptide; solubilized in ethanol before dilution in water
Protocol: Peptides were produced by manual and semiautomatic solid-phase peptide synthesis (SPPS). To reduce the impact on the environment of the synthesis, a limited excess of reagents was employed in the coupling steps (1.5–2.5 equivalents of coupling reagents instead of the standard 4 equivalents-1 equivalent corresponds to the loading of the resin). Moreover, all steps were performed in the ecofriendly solvent mixture of dimethylsulfoxide/ethyl acetate 1:9 instead of the hazardous solvent N,N-dimethylformamide (DMF). We exploited ethyl cyano(hydroxyimino) acetate (Oxyma pure) and diisopropylcarbodiimide (DIC), classified by the ACS Green Chemistry Institute® Pharmaceutical Roundtable as two of the greenest coupling reagents, instead of the commonly employed O-benzotriazol-1-yl-1,1,3,3 tetramethyluronium hexafluorophosphate (HBTU)/1-hydroxy-1,2,3-benzotriazole (HOBt) mixture or HATU [2-(1H-7-aza-1,2,3-benzotriazol-1-yl)-1,1,3,3-tetramethyl uronium hexafluorophosphate]. The strategy reduced the environmental impact and synthetic costs by more than 70% compared to our previous methods based on standard procedure. By adopting a manual/semiautomatic synthetic approach, the amount of solvents and reagents were reduced relative to those used in automated synthesis. The steric hindrance of Aib makes it poorly reactive, to the point that standard procedures employ repeated couplings. […]

B. sorokiniana = assay type: cell-based, Bipolaris sorokiniana; settings: for growth inhibition at maximum concentration tested: 15 µM, 96 h, absorbance at 450 nm
F. graminearum = settings: for MIC: 96 h, pH 6.9
P. expansum = settings: for growth inhibition at maximum concentration tested: 15 µM, 96 h, absorbance at 450 nm
B. cinerea [4] = assay type: cell-based, Botrytis cinerea; settings: 15 µM, 96 h, absorbance at 450 nm
[5] = system: pronase E (a mixture of different proteases); settings: after 27 h, HPLC
trypsin = settings: HPLC
B. cinerea conidia = assay: Cell viability assay of conidia (Evan's blue staining, plating on PDA); assay type: cell-based, Botrytis cinerea; settings: 15 µM
B. cinerea [6] = assay: Protection of grapevine leaves from B. cinerea infection; assay type: in vivo, Botrytis cinerea; settings: grapevine leaves cv. Glera, 50 µM, 7 dpi, vs water control, three experiments
B. cinerea [7] = assay: Protection of grape berries from B. cinerea infection; assay type: in vivo, Botrytis cinerea; settings: 50 µM, vs control
[8] = monitored every 12 h for seven days

Row | Compound | Growth Delay (B. cinerea [1]; [8]) [h] | fungal growth / activity against B. cinerea (in words) (B. cinerea [1]; [8]) | Antifungal Activity (B. cinerea [1]) | Growth Delay (B. cinerea [1]; monitored for seven days) [h] | reduction of infected (symptomatic) leaf area (B. cinerea [2]; 7 dpi, vs water control) | also measured
1 | CCCCCCCC(=O)NC(C)(C)C(=O)NCC(=O)N[C@@H](CC(C)C)C(=O)NC(C)(C)C(=O)N[C@@H](CCCCN)C(=O)NCC(=O)N[C@@H](CC(C)C)C(=O)NC(C)(C)C(=O)NCC(=O)N[C@H](C(=O)N[C@H](CO)CC(C)C)[C@@H](C)CC [Peptide 3] | 0 | fungal growth was observed after 12 h | – |  |  | 
2 | CCCCCCCC(=O)NC(C)(C)C(=O)N[C@@H](CCCCN)C(=O)N[C@@H](CCCCN)C(=O)N[C@@H](CC(C)C)C(=O)NC(C)(C)C(=O)NCC(=O)N[C@H](C(=O)N[C@H](CO)CC(C)C)[C@@H](C)CC [Peptide 4c] (Octanoyl-[Aib]KKL[Aib]GI[Leu(ol)]) |  | inhibiting mycelial growth |  | >170 | ~55% | 
3 | nOct-Aib-Gly^2-Leu-Aib-Gly^5-Gly-Leu-Aib^8-Gly-Ile-Lol [trichogin, trichogin GA IV, reference compound] | 0 | fungal growth was observed after 12 h; also recorded: completely inactive |  |  |  | water solubility (in words) [3]: poor water solubility; activity against B. sorokiniana (in words) (B. sorokiniana): inactive; activity against F. graminearum (in words) (F. graminearum): inactive; activity against P. expansum (in words) (P. expansum): inactive
4 | CCCCCCCC(=O)NC(C)(C)C(=O)NCC(=O)N[C@@H](CC(C)C)C(=O)NC(C)(C)C(=O)NCC(=O)N[C@@H](CCCCN)C(=O)N[C@@H](CC(C)C)C(=O)NC(C)(C)C(=O)NCC(=O)N[C@H](C(=O)N[C@H](CO)CC(C)C)[C@@H](C)CC [Peptide 5] |  | No growth occurred | ++++ | >170 | > 95% | growth inhibition at maximum concentration tested (B. cinerea [4]): completely inhibited the growth; growth inhibition at maximum concentration tested (B. sorokiniana): strong growth inhibition effect; growth inhibition at maximum concentration tested (F. graminearum): completely inhibited the growth; MIC (F. graminearum): 5 to 15 µM; growth inhibition at maximum concentration tested (P. expansum): completely inhibited the growth; disease symptoms (in words) (B. cinerea [2]; common bean leaves, 15 µM): significant decrease in disease symptoms; disease symptoms (in words) (B. cinerea [2]; common bean leaves, 50 µM): almost complete annulment
5 | CCCCCCCC(=O)NC(C)(C)C(=O)N[C@@H](CCCCN)C(=O)N[C@@H](CC(C)C)C(=O)NC(C)(C)C(=O)NCC(=O)N[C@@H](CCCCN)C(=O)N[C@@H](CC(C)C)C(=O)NC(C)(C)C(=O)NCC(=O)N[C@H](C(=O)N[C@H](CO)CC(C)C)[C@@H](C)CC [Peptide 7] | 72 to 84 | delayed growth | ++ |  |  | 
6 | CCCCCCCC(=O)NC(C)(C)C(=O)N[C@@H](CCCCN)C(=O)N[C@@H](CC(C)C)C(=O)NC(C)(C)C(=O)N[C@@H](CCCCN)C(=O)NCC(=O)N[C@@H](CC(C)C)C(=O)NC(C)(C)C(=O)NCC(=O)N[C@H](C(=O)N[C@H](CO)CC(C)C)[C@@H](C)CC [Peptide 1] (Octanoyl-[Aib]KL[Aib]KGL[Aib]GI[Leu(ol)]) | 12 to 24 | delayed growth | + ^a |  |  | stability against pronase [5]: stable; time to digestion by trypsin (trypsin): less than 15 min
7 | CCCCCCCC(=O)NC(C)(C)C(=O)NCC(=O)N[C@@H](CC(C)C)C(=O)NC(C)(C)C(=O)N[C@@H](CCCCN)C(=O)N[C@@H](CCCCN)C(=O)N[C@@H](CC(C)C)C(N)=O [Peptide 4c1] (Octanoyl-[Aib]GL[Aib]KKL-NH2) |  | inhibiting mycelial growth |  | >170 | ~55% | 
8 | CCCCCCCC(=O)NC(C)(C)C(=O)NCC(=O)N[C@@H](CC(C)C)C(=O)NC(C)(C)C(=O)N[C@@H](CCCCN)C(=O)N[C@@H](CCCCN)C(=O)N[C@@H](CC(C)C)C(=O)NC(C)(C)C(=O)NCC(=O)N[C@H](C(=O)N[C@H](CO)CC(C)C)[C@@H](C)CC [Peptide 4] |  | No growth occurred | ++++ | >170 | > 95% | germination of conidia (microscopy, Evans blue) (B. cinerea conidia; 24 h incubation in PDB, 5 × 10^5 mL^−1 conidia): conidia did not germinate; fungal growth after rinsing and plating treated conidia on PDA (fungicidal activity) (B. cinerea conidia; treated 24 h, rinsed with distilled water, plated on PDA): No fungal growth was observed; growth inhibition at maximum concentration tested (B. cinerea [4]): completely inhibited the growth; growth inhibition at maximum concentration tested (B. sorokiniana): strong growth inhibition effect; reduction of infected leaf area (B. cinerea [6]): about 70%; increase in the number of asymptomatic berries (B. cinerea [7]): threefold increase; growth inhibition at maximum concentration tested (F. graminearum): completely inhibited the growth; MIC (F. graminearum): 5 to 15 µM; growth inhibition at maximum concentration tested (P. expansum): completely inhibited the growth; disease symptoms (in words) (B. cinerea [2]; common bean leaves, 15 µM): significant decrease in disease symptoms; disease symptoms (in words) (B. cinerea [2]; common bean leaves, 50 µM): almost complete annulment; reduction of lesion (symptomatic leaf) area (B. cinerea [2]; common bean leaves, peptide sprayed at 15 µM, 7 dpi, vs water control): about 75%
9 | CCCCCCCC(=O)NC(C)(C)C(=O)N[C@@H](CCCCN)C(=O)N[C@@H](CC(C)C)C(=O)NC(C)(C)C(=O)NCC(=O)NCC(=O)N[C@@H](CC(C)C)C(=O)NC(C)(C)C(=O)NCC(=O)N[C@H](C(=O)N[C@H](CO)CC(C)C)[C@@H](C)CC [Peptide 2] (Octanoyl-[Aib]KL[Aib]GGL[Aib]GI[Leu(ol)]) | 36 to 48 | delayed growth | ++ |  |  | 
10 | CCCCCCCC(=O)NC(C)(C)C(=O)NCC(=O)N[C@@H](CC(C)C)C(=O)NC(C)(C)C(=O)N[C@@H](CCCCN)C(=O)NC(C)(C)C(=O)N[C@@H](CC(C)C)C(=O)NC(C)(C)C(=O)NCC(=O)N[C@H](C(=O)N[C@H](CO)CC(C)C)[C@@H](C)CC [Peptide 6] | 12 to 24 | delayed growth | + |  |  | 
11 | CCCCCCCC(=O)NC(C)(C)C(=O)NCC(=O)N[C@@H](CC(C)C)C(=O)NC(C)(C)C(=O)NCC(=O)NCC(=O)N[C@@H](CC(C)C)C(=O)NC1(C(=O)NCC(=O)N[C@H](C(=O)N[C@H](CO)CC(C)C)[C@@H](C)CC)CCNCC1 [Peptide 8, [Api^8]-trichogin] (Octanoyl-[Aib]GL[Aib]GGL[Api]GI[Leu(ol)]) |  | No growth occurred |  | >170 |  | growth inhibition at maximum concentration tested (B. cinerea [4]): completely inhibited the growth; growth inhibition at maximum concentration tested (B. sorokiniana): strong growth inhibition effect; growth inhibition at maximum concentration tested (F. graminearum): completely inhibited the growth; MIC (F. graminearum): 5 to 15 µM; growth inhibition at maximum concentration tested (P. expansum): completely inhibited the growth
12 | CCCCCCCC(=O)NC(C)(C)C(=O)N[C@@H](CCCCN)C(=O)N[C@@H](CCCCN)C(=O)N[C@@H](CC(C)C)C(=O)NC(C)(C)C(=O)NCC(=O)N[C@H](C(=O)N[C@@H](CC(C)C)C(N)=O)[C@@H](C)CC [Peptide 4c2] (Octanoyl-[Aib]KKL[Aib]GIL-NH2) |  | inhibiting mycelial growth |  | >170 | about 70% | 
